“And” between values parts separate entries of the source, which are not always exact repeats. Identical values can stand only once. Inconclusive results and toxic doses are left out.
System: L1210 leukemia ip in BDF1 mice, survival T/C
Assay: NCI In Vivo Anticancer Drug Screen. Data for tumor model L1210 Leukemia (intraperitoneal) in B6D2F1 (BDF1) mice
Conditions: higher = longer survival
How it was run: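 Value reflects the ratio of survival in compound-treated mice to survival in vehicle-treated controls, with both groups carrying the same transplanted tumor.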

[1] = endpoint: mean survival time, dose: 100.0 mg/kg/injection, schedule: Q04DX002 (ip), vehicle: Klucel (hydroxypropylcellulose) (HPC)
[2] = endpoint: mean survival time, dose: 200.0 mg/kg/injection, schedule: Q04DX002 (ip), vehicle: Klucel (hydroxypropylcellulose) (HPC)
[3] = endpoint: mean survival time, dose: 400.0 mg/kg/injection, schedule: Q04DX002 (ip), vehicle: Klucel (hydroxypropylcellulose) (HPC)

COc1cc2c[n+](C)c3c4cc5c(cc4ccc3c2cc1OC)OCO5
T/C (endpoint: mean survival time, dose: 1.0 mg/kg/injection, schedule: Q01DX009 (ip), vehicle: saline): 109 % of control and 120 % of control
T/C (endpoint: mean survival time, dose: 10.0 mg/kg/injection, schedule: Q01DX009 (ip), vehicle: saline): 118 % of control
T/C (endpoint: mean survival time, dose: 40.0 mg/kg/injection, schedule: Q01DX009 (ip), vehicle: saline): 121 % of control
T/C (endpoint: mean survival time, dose: 64.0 mg/kg/injection, schedule: Q01DX009 (ip), vehicle: saline): 117 % of control and 121 % of control
T/C (endpoint: mean survival time, dose: 80.0 mg/kg/injection, schedule: Q04DX003 (ip), vehicle: saline): 150 % of control
T/C [1]: 111 % of control
T/C [2]: 111 % of control
T/C [3]: 107 % of control
T/C (endpoint: median survival time, dose: 1.0 mg/kg/injection, schedule: Q03HX024 (ip), vehicle: saline): 114 % of control
T/C (endpoint: median survival time, dose: 2.0 mg/kg/injection, schedule: Q03HX016 (ip), vehicle: saline): 124 % of control
T/C (endpoint: median survival time, dose: 4.0 mg/kg/injection, schedule: Q03HX008 (ip), vehicle: saline): 121 % of control
T/C (endpoint: median survival time, dose: 4.0 mg/kg/injection, schedule: Q03HX016 (ip), vehicle: saline): 119 % of control
T/C (endpoint: median survival time, dose: 8.0 mg/kg/injection, schedule: Q04DX003 (ip), vehicle: saline): 103 % of control
T/C (endpoint: median survival time, dose: 8.0 mg/kg/injection, schedule: Q08DX002 (ip), vehicle: saline): 105 % of control
T/C (endpoint: median survival time, dose: 16.0 mg/kg/injection, schedule: Q01DX009 (oral), vehicle: saline): 105 % of control
T/C (endpoint: median survival time, dose: 16.0 mg/kg/injection, schedule: Q03HX008 (ip), vehicle: saline): 121 % of control
T/C (endpoint: median survival time, dose: 16.0 mg/kg/injection, schedule: Q04DX003 (ip), vehicle: saline): 101 % of control
T/C (endpoint: median survival time, dose: 16.0 mg/kg/injection, schedule: Q08DX002 (ip), vehicle: saline): 103 % of control
T/C (endpoint: median survival time, dose: 32.0 mg/kg/injection, schedule: Q01DX001 (ip), vehicle: saline): 121 % of control
T/C (endpoint: median survival time, dose: 32.0 mg/kg/injection, schedule: Q01DX009 (oral), vehicle: saline): 109 % of control
T/C (endpoint: median survival time, dose: 32.0 mg/kg/injection, schedule: Q04DX003 (ip), vehicle: saline): 101 % of control
T/C (endpoint: median survival time, dose: 64.0 mg/kg/injection, schedule: Q01DX001 (ip), vehicle: saline): 112 % of control
T/C (endpoint: median survival time, dose: 64.0 mg/kg/injection, schedule: Q01DX009 (ip), vehicle: saline): 112 % of control
T/C (endpoint: median survival time, dose: 64.0 mg/kg/injection, schedule: Q01DX009 (oral), vehicle: saline): 103 % of control
T/C (endpoint: median survival time, dose: 64.0 mg/kg/injection, schedule: Q04DX003 (ip), vehicle: saline): 101 % of control
T/C (endpoint: median survival time, dose: 128.0 mg/kg/injection, schedule: Q01DX001 (ip), vehicle: saline): 121 % of control
T/C (endpoint: median survival time, dose: 128.0 mg/kg/injection, schedule: Q01DX009 (oral), vehicle: saline): 102 % of control
T/C (endpoint: median survival time, dose: 128.0 mg/kg/injection, schedule: Q04DX003 (ip), vehicle: saline): 87 % of control
T/C (endpoint: median survival time, dose: 128.0 mg/kg/injection, schedule: Q08DX002 (ip), vehicle: saline): 101 % of control
T/C (endpoint: median survival time, dose: 256.0 mg/kg/injection, schedule: Q01DX009 (oral), vehicle: saline): 100 % of control
T/C (endpoint: median survival time, dose: 512.0 mg/kg/injection, schedule: Q01DX009 (oral), vehicle: saline): 105 % of control

OCC1SCCS1
T/C (endpoint: mean survival time, dose: 100.0 mg/kg/injection, schedule: Q04DX002 (ip), vehicle: saline with Tween-80): 101 % of control
T/C (endpoint: mean survival time, dose: 200.0 mg/kg/injection, schedule: Q04DX002 (ip), vehicle: saline with Tween-80): 97 % of control
T/C (endpoint: mean survival time, dose: 400.0 mg/kg/injection, schedule: Q04DX002 (ip), vehicle: saline with Tween-80): 90 % of control

COc1ccc(-n2cccc2/C=N/O)cc1
T/C [1]: 96 % of control
T/C [2]: 100 % of control
T/C [3]: 86 % of control

O=C(CCl)C1C(O)=[N+](c2ccccc2)C2C=CC=CN12 (configuration not stated)
T/C (endpoint: mean survival time, dose: 25.0 mg/kg/injection, schedule: Q01DX009 (ip), vehicle: saline): 92 % of control
T/C (endpoint: mean survival time, dose: 25.0 mg/kg/injection, schedule: Q04DX003 (ip), vehicle: saline): 92 % of control
T/C (endpoint: mean survival time, dose: 50.0 mg/kg/injection, schedule: Q01DX009 (ip), vehicle: saline): 89 % of control
T/C (endpoint: mean survival time, dose: 50.0 mg/kg/injection, schedule: Q04DX003 (ip), vehicle: saline): 102 % of control
T/C (endpoint: mean survival time, dose: 100.0 mg/kg/injection, schedule: Q01DX001 (ip), vehicle: saline): 105 % of control
T/C (endpoint: mean survival time, dose: 100.0 mg/kg/injection, schedule: Q01DX009 (ip), vehicle: saline): 87 % of control
T/C (endpoint: mean survival time, dose: 100.0 mg/kg/injection, schedule: Q04DX003 (ip), vehicle: saline): 95 % of control
T/C (endpoint: mean survival time, dose: 150.0 mg/kg/injection, schedule: Q01DX009 (ip), vehicle: saline): 95 % of control
T/C (endpoint: mean survival time, dose: 225.0 mg/kg/injection, schedule: Q01DX009 (ip), vehicle: saline): 95 % of control
T/C (endpoint: mean survival time, dose: 335.0 mg/kg/injection, schedule: Q01DX009 (ip), vehicle: saline): 95 % of control

Source: PubChem BioAssay AID248 (DTP/NCI, 2004)
